According to patent US8026359B2, “Fungicidal heterocyclic amines” (E.I. du Pont de Nemours and Company, priority 2007, dated 2011):
Marks after values point to notes of the source that are not given here.

Assays:
Format in all cases: in vivo
Fusarium graminearum = test: whole plant or invertebrate
Phytophthora infestans = conditions: 200 ppm; 100 = 100% disease control, 0 = no control relative to controls
[1] = tested on: Erysiphe graminis f. sp. tritici; test: Test A: wheat powdery mildew, preventive spray on wheat seedlings
How it was run: (§1)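 Two spray concentrations are used, 40 ppm and 200 ppm, the latter matching a rate of 500 g/ha, applied until run-off. The carrier is half acetone, half purified water with 250 ppm surfactant, and acetone for initial dissolution makes up 3% of the volume.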

[2] = tested on: Puccinia recondita f. sp. tritici; test: Test B: wheat leaf rust, preventive spray on wheat seedlings
How it was run: as §1

[3] = tested on: Colletotrichum orbiculare; test: Test I: cucumber Colletotrichum anthracnose, preventive spray on cucumber seedlings; conditions: 100 = 100% disease control, 0 = no control relative to controls; for Test I disease control rating: 200 ppm
How it was run: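 Preventive foliar spray to run-off on cucumber seedlings, at 200 ppm (stated as equal to 500 g/ha) or 40 ppm. Test suspensions were made in acetone/water 50/50 containing 250 ppm Trem 014, after first dissolving compound in acetone at 3% of final volume.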

Botrytis cinerea = test: Test F: tomato Botrytis, preventive spray on tomato seedlings
How it was run: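 Preventive run-off spray onto tomato seedlings at 200 ppm (equivalent to 500 g/ha) or 40 ppm. Suspensions: compound predissolved in acetone at 3% of final volume, then taken up in acetone/purified water 50/50 containing 250 ppm Trem® 014 surfactant.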

Septoria tritici = test: Test D: wheat leaf blotch, preventive spray on wheat seedlings
How it was run: as §1

Pythium aphanidermatum = test: Test M: bluegrass pythium blight, preventive spray on bluegrass seedlings; conditions: 200 ppm; 100 = 100% disease control, 0 = no control relative to controls
From the text: (§2) General protocol for preparing test suspensions for Tests A-R: The test compounds were first dissolved in acetone in an amount equal to 3% of the final volume and then suspended at the desired concentration (in ppm) in acetone and purified water (50/50 mix) containing 250 ppm of the surfactant Trem® 014 (polyhydric alcohol esters). The resulting test suspensions were then used in tests A-R. In Tests A-M, compounds were sprayed as a 200 ppm test suspension (equivalent to a rate of 500 g/ha) or as a 40 ppm test suspension to the point of runoff on the test plants. In Tests N-R, compounds were sprayed as a 100 g/ha test suspension (equivalent to a rate of 100 ppm) on the test plants at an application volume of 1000 L/ha. The test suspension was sprayed to the point of run-off on bluegrass seedlings.

Septoria nodorum = test: Test C: wheat glume blotch, preventive spray on wheat seedlings
How it was run: as §1

Plasmopara viticola = test: Test L: grape downy mildew, spray after inoculation of grape seedlings; conditions: 200 ppm; 100 = 100% disease control, 0 = no control relative to controls
From the text: as §2, with “L/ha. Grape seedlings were inoculated with a spore suspension of Plasmopara viticola (the causal agent of grape downy mildew) and incubated in a saturated atmosphere at 20° C. for 24 h. After a short drying period, the” for “L/ha. The”, “on the grape seedlings and then moved to a growth chamber at 20° C. for 6 days, after which time the test units were placed back into a saturated atmosphere at 20° C. for 24 h. Upon removal, disease ratings were made.” for “on bluegrass seedlings.”

Rhizoctonia oryzae = test: Test J: turf brown patch, preventive spray on creeping bent grass seedlings; conditions: 200 ppm; 100 = 100% disease control, 0 = no control relative to controls
From the text: as §2, with “creeping bent grass” for “bluegrass”

Alternaria solani = test: Test H: tomato early blight, preventive spray on seedlings
From the text: as §2, with “wheat” for “bluegrass”

[4] = 200 ppm, 100 = 100% disease control, 0 = no control relative to controls
[5] = Fusarium graminearum, in Triticum aestivum, 192 h, read-out: Test E disease control rating

## Fc1ccc(F)c(Nc2cc(-c3ccnc(NC4CCOCC4)n3)ccn2)c1F [Compound 73]
Fusarium graminearum; [4]
  Test E disease control rating: 0%
Phytophthora infestans
  Test K disease control rating: 0%
[1]; [4]
  Test A disease control rating: 43%
[2]; [4]
  Test B disease control rating: 96%
[3]
  Test I disease control rating: 85%
Botrytis cinerea; [4]
  Test F disease control rating: 57%
Septoria tritici; [4]
  Test D disease control rating: 40%
Pythium aphanidermatum
  Test M disease control rating: 0%
Septoria nodorum; [4]
  Test C disease control rating: 99%

## CC(CO)Nc1nccc(-c2ccnc(Nc3cccc(F)c3)c2)n1 (stereo not shown) [Compound 48]
Fusarium graminearum; [4]
  Test E disease control rating: 0%
Phytophthora infestans
  Test K disease control rating: 0%
[1]; [4]
  Test A disease control rating: 0%
[2]; [4]
  Test B disease control rating: 99%
[3]
  Test I disease control rating: 26%
Plasmopara viticola
  Test L disease control rating: 0%
Botrytis cinerea; [4]
  Test F disease control rating: 15%
Rhizoctonia oryzae
  Test J disease control rating: 0%
Pythium aphanidermatum
  Test M disease control rating: 0%
Septoria nodorum; [4]
  Test C disease control rating: 87%

## COCC(C)Nc1nccc(-c2ccnc(Nc3cccc(Cl)c3F)c2)n1 (stereo not shown) [Compound 46]
Fusarium graminearum; [4]
  Test E disease control rating: 94%
Phytophthora infestans
  Test K disease control rating: 0%
[1]; [4]
  Test A disease control rating: 0%
[2]; [4]
  Test B disease control rating: 91%
[3]
  Test I disease control rating: 0%
Plasmopara viticola
  Test L disease control rating: 0%
Botrytis cinerea; [4]
  Test F disease control rating: 7%
Rhizoctonia oryzae
  Test J disease control rating: 0%
Pythium aphanidermatum
  Test M disease control rating: 0%
Septoria nodorum; [4]
  Test C disease control rating: 97%

## COCC(C)(C)Nc1nccc(-c2ncnc(Nc3cc(F)cc(F)c3)n2)n1 [Compound 30]
Alternaria solani; 40 ppm (marked *)
  Test H disease control rating: 87* %
Fusarium graminearum; [4]
  Test E disease control rating: 91%
[1]; [4]
  Test A disease control rating: 67%
[2]; [4]
  Test B disease control rating: 99%
Botrytis cinerea; [4]
  Test F disease control rating: 96%
Septoria tritici; [4]
  Test D disease control rating: 88%
Septoria nodorum; [4]
  Test C disease control rating: 100%

## COCC(C)Nc1nccc(-c2ccnc(Nc3ccc(F)cc3)c2)n1 (stereo not shown) [Compound 50]
Fusarium graminearum; [4]
  Test E disease control rating: 72%
Phytophthora infestans
  Test K disease control rating: 0%
[1]; [4]
  Test A disease control rating: 0%
[2]; [4]
  Test B disease control rating: 99%
[3]
  Test I disease control rating: 96%
Plasmopara viticola
  Test L disease control rating: 0%
Botrytis cinerea; [4]
  Test F disease control rating: 94%
Rhizoctonia oryzae
  Test J disease control rating: 0%
Pythium aphanidermatum
  Test M disease control rating: 0%
Septoria nodorum; [4]
  Test C disease control rating: 84%

## COCC(C)Nc1cc(-c2ccnc(Nc3ccccc3)n2)ncn1 (stereo not shown) [Compound 108]
Fusarium graminearum; [4]
  Test E disease control rating: 98%
Phytophthora infestans
  Test K disease control rating: 0%
[1]; [4]
  Test A disease control rating: 0%
[2]; [4]
  Test B disease control rating: 80%
[3]
  Test I disease control rating: 0%
Plasmopara viticola
  Test L disease control rating: 0%
Botrytis cinerea; [4]
  Test F disease control rating: 38%
Rhizoctonia oryzae
  Test J disease control rating: 0%
Pythium aphanidermatum
  Test M disease control rating: 0%
Septoria nodorum; [4]
  Test C disease control rating: 0%

## COC[C@H](C)Nc1nccc(-c2ncnc(Nc3cc(F)cc([N+](=O)[O-])c3)n2)n1 [Compound 39, N-(3-fluoro-5-nitrophenyl)-4-[2-[[(1S)-2-methoxy-1-methylethyl]amino]-4-pyrimidinyl]-1,3,5-triazin-2-amine]
Alternaria solani; Alternaria solani, 168 h, 40 ppm (marked *), read-out: Test H disease control rating
  pest or weed control at 40 ppm: 99%
Fusarium graminearum; [5]
  pest or weed control at 40 ppm: 82%
[1]; Blumeria graminis, 192 h, 40 ppm (marked *), read-out: Test A disease control rating
  pest or weed control at 40 ppm: 0%
[2]; Puccinia recondita, 192 h, 40 ppm (marked *), read-out: Test B disease control rating
  pest or weed control at 40 ppm: 98%
Botrytis cinerea; Botrytis cinerea, 120 h, 40 ppm (marked *), read-out: Test F disease control rating
  pest or weed control at 40 ppm: 60%
Septoria tritici; Zymoseptoria tritici, 504 h, 40 ppm (marked *), read-out: Test D disease control rating
  pest or weed control at 40 ppm: 24%
Septoria nodorum; Parastagonospora nodorum, 216 h, 40 ppm (marked *), read-out: Test C disease control rating
  pest or weed control at 40 ppm: 99%

## COCC(C)Nc1cc(-c2ccnc(Nc3cccc(Cl)c3)n2)ncn1 (stereo not shown) [Compound 105, N^2-(3-chlorophenyl)-N^6′-(2-methoxy-1-methylethyl) [4,4′-bipyrimidine]-2,6′-diamine]
Fusarium graminearum; [5]
  pest or weed control at 200 ppm: 73%
Phytophthora infestans
  Test K disease control rating: 0%
[1]; Blumeria graminis, 192 h, 200 ppm, 100 = 100% disease control, 0 = no control relative to controls, read-out: Test A disease control rating
  pest or weed control at 200 ppm: 0%
[2]; Puccinia recondita, 192 h, 200 ppm, 100 = 100% disease control, 0 = no control relative to controls, read-out: Test B disease control rating
  pest or weed control at 200 ppm: 97%
[3]; Colletotrichum orbiculare, 144 h, read-out: Test I disease control rating
  pest or weed control at 200 ppm: 0%
Plasmopara viticola
  Test L disease control rating: 0%
Botrytis cinerea; Botrytis cinerea, 120 h, 200 ppm, 100 = 100% disease control, 0 = no control relative to controls, read-out: Test F disease control rating
  pest or weed control at 200 ppm: 78%
Rhizoctonia oryzae
  Test J disease control rating: 0%
Pythium aphanidermatum
  Test M disease control rating: 0%
Septoria nodorum; Parastagonospora nodorum, 216 h, 200 ppm, 100 = 100% disease control, 0 = no control relative to controls, read-out: Test C disease control rating
  pest or weed control at 200 ppm: 92%

## Cc1cc(Cl)cc(Cl)c1Nc1cc(-c2ccnc(NC3CCOCC3)n2)ccn1 [Compound 100]
Alternaria solani; [4]
  Test H disease control rating: 99%
Fusarium graminearum; [4]
  Test E disease control rating: 96%
[1]; [4]
  Test A disease control rating: 0%
[2]; [4]
  Test B disease control rating: 98%
[3]
  Test I disease control rating: 0%
Botrytis cinerea; [4]
  Test F disease control rating: 0%
Septoria tritici; [4]
  Test D disease control rating: 77%
Septoria nodorum; [4]
  Test C disease control rating: 98%

## COC[C@H](C)Nc1nccc(-c2ncnc(Nc3ccnc(F)c3)n2)n1 [Compound 31]
Alternaria solani; [4]
  Test H disease control rating: 92%
Fusarium graminearum; [4]
  Test E disease control rating: 89%
[1]; [4]
  Test A disease control rating: 0%
[2]; [4]
  Test B disease control rating: 100%
Botrytis cinerea; [4]
  Test F disease control rating: 99%
Septoria tritici; [4]
  Test D disease control rating: 88%
Septoria nodorum; [4]
  Test C disease control rating: 100%

## COC[C@H](C)Nc1nccc(-c2ncnc(Nc3cc(F)cc(C#N)c3)n2)n1 [Compound 36]
Alternaria solani; 40 ppm (marked *)
  Test H disease control rating: 99* %
Fusarium graminearum; 40 ppm (marked *)
  Test E disease control rating: 91* %
[1]; 40 ppm (marked *)
  Test A disease control rating: 0* %
[2]; 40 ppm (marked *)
  Test B disease control rating: 99* %
Botrytis cinerea; 40 ppm (marked *)
  Test F disease control rating: 99* %
Septoria tritici; 40 ppm (marked *)
  Test D disease control rating: 29* %
Septoria nodorum; 40 ppm (marked *)
  Test C disease control rating: 100* %

## COC[C@H](C)Nc1nccc(-c2ncnc(Nc3ccnc(Cl)c3)n2)n1 [Compound 27]
Alternaria solani; 40 ppm (marked *)
  Test H disease control rating: 100* %
Fusarium graminearum; [4]
  Test E disease control rating: 97%
[1]; [4]
  Test A disease control rating: 0%
[2]; [4]
  Test B disease control rating: 100%
Botrytis cinerea; [4]
  Test F disease control rating: 94%
Septoria tritici; [4]
  Test D disease control rating: 75%
Septoria nodorum; [4]
  Test C disease control rating: 99%

## Fc1cc(F)cc(Nc2ncnc(-c3ccnc(NC4CCOCC4)n3)n2)c1 [Compound 34]
Alternaria solani; [4]
  Test H disease control rating: 94%
Fusarium graminearum; [4]
  Test E disease control rating: 68%
[1]; [4]
  Test A disease control rating: 0%
[2]; [4]
  Test B disease control rating: 98%
Botrytis cinerea; [4]
  Test F disease control rating: 0%
Septoria tritici; [4]
  Test D disease control rating: 59%
Septoria nodorum; [4]
  Test C disease control rating: 100%
